For one test, the system named is 786-O. Kind of test: Cytotoxicity of Auristatin-Peptide-h1F6 conjugates, resazurin assay. Format: cell-based, human. From the text: (§1) The conjugates contain approximately 4 drugs per antibody.
(In general: The colour change of resazurin is a common sign of viable cells or microbes.)

In another test the test system is Caki-1. Described as above. Format: cell-based.
From the text: as §1

Test [1] concerns L428. The test is described as above. The format is cell-based.
From the text: as §1

A further test has as its system HCT-116 (CD70−). Kind of test: Cytotoxicity of Auristatin-Peptide-h1F6 conjugates, CD70- control cell line. Conditions: Table 5, ~4 drugs/Ab. The format is cell-based.
From the text: as §1

A further test concerns Caki-2. Description: Cytotoxicity of Auristatin-Peptide-h1F6 conjugates, resazurin assay. The format is cell-based. As to the method: as §1
Following the procedure described as Examples 57 and 58, Auristatin-Peptide-h1F6 conjugates were evaluated on CD70^+ cell, such as 786-O, Caki-1, Caki-2, and L428. Conjugates contain approximately 4 drugs per antibody.

The test system of the next test is Karpas 299. Kind of test: Cytotoxicity of Auristatin-Peptide-cAC10 conjugates on CD30+ cells. Format: cell-based, human. To be noted: Table 11, ~4 drugs per antibody. As to the method:
(§2) Following the procedure described in Example 57, Auristatin-Dipeptide-cAC10 antibody conjugates were evaluated on CD30+ positive cell lines, Karpas 299, L428 and L540cy. In addition, a control conjugate, cAC10-vc-PABC-MMAF, was used. […] The conjugates contain approximately 4 drugs per antibody.
(§3) Following the procedure described as Examples 57 and 58, the activities of Auristatin-Peptide-cAC10 conjugates were evaluated on CD30^+ cells, such as Karpas 299, L428, and L540cy. The activities of Auristatin-Peptide-hBU12 conjugates were evaluated on CD19^+ cells such as Ramos, SUDHL-4, and ARH-77. The activities of Auristatin-Peptide-anti-LIV-1 conjugates were evaluated on LIV-1 positive cell lines MCF-7 and SKOV-3. The activities of Auristatin-Peptide-BR96 conjugates were evaluated on Le^y positive cells H3396, RCA, and L2987. All conjugates contain approximately 4 drugs per antibody.

For another test, the system named is L540cy. Described as above. To be noted: Table 11, ~4 drugs per antibody. The format is cell-based, human. As to the method:
as §2, §3

In test [2] the test system is L428. The description is as above. Conditions: Table 11, ~4 drugs per antibody. Format: cell-based. As for the experimental part: as §2, §3
The subject of the next test is ARH-77. Kind of test: Cytotoxicity of Auristatin-Peptide-hBU12 conjugates on CD19+ cells. The format is cell-based. Conditions: Table 11, ~4 drugs per antibody. As to the method:
as §3

Another test deals with Ramos. The description is as above. To be noted: Table 11, ~4 drugs per antibody. Format: cell-based. As for the experimental part: as §3
A further test concerns SUDHL-4. Described as above. The format is cell-based. Conditions: Table 11, ~4 drugs per antibody. As to the method: as §3
For the next test, the system named is MCF-7. Description: Cytotoxicity of Auristatin-Peptide-anti-LIV-1 conjugates on LIV-1 positive cells. Format: cell-based. Conditions: Table 11, ~4 drugs per antibody. As for the experimental part:
as §3

For a further test, the system named is SKOV-3. Described as above. The format is cell-based. Conditions: Table 11, ~4 drugs per antibody. As to the method: as §3
The next test has as its system H3396. Kind of test: Cytotoxicity of Auristatin-Peptide-BR96 conjugates on Le^y positive cells. To be noted: Table 11, ~4 drugs per antibody. The format is cell-based. As for the experimental part: as §3
A further test relates to L2987. The description is as above. Format: cell-based. To be noted: Table 11, ~4 drugs per antibody. As to the method: as §3
The next test relates to RCA. The description is as above. Format: cell-based. Conditions: Table 11, ~4 drugs per antibody. As to the method: as §3
The subject of test [3] is DoHH-2 follicular B-cell lymphoma subcutaneous model. Description: In vivo efficacy of hBU12 conjugates in lymphoma xenograft model. Conditions: FIG. 16, q4d×4 at 3 mg/kg, SCID mice. Set-up: species or system mouse. As for the experimental part:
The efficacies of Auristatin-Dipeptide hBU12 conjugates with the aryl and alkyl-maleimide Stretcher units were evaluated in a DoHH-2 follicular B-cell lymphoma subcutaneous model. Auristatin-Dipeptide-hBU12 conjugates with average of 4 drug moieties per antibody were used. DoHH-2 cells were implanted subcutaneously into immunodeficient SCID mice (5×10^6 cells per mouse). […] Treatment was initiated when average size of tumors reached 100 mm^3; the treatment schedule was q4d×4 at 3 mg/kg.

The subject of test [4] is L540cy Hodgkin's lymphoma subcutaneous model. Kind of test: In vivo efficacy of cAC10 conjugates in lymphoma xenograft model. Set-up: species or system mouse. Conditions: FIG. 17, q4d×3 at 1 mg/kg, SCID mice. As to the method:
The efficacy of selected Auristatin-Dipeptide-cAC10 conjugates having Stretcher units with aryl or alkyl maleimides were evaluated in L540cy Hodgkin's lymphoma subcutaneous model. Auristatin-Dipeptide-cAC10 conjugates with average of 4 drug moieties per antibody were used. L540cy cells were implanted subcutaneously into immunodeficient SCID mice (5×10^6 cells per mouse). […] Treatment was initiated when average size of tumors reached 100 mm^3. The treatment schedule was q4d×3 at 1 mg/kg.

The mark [5] stands for this setting: Table 5, h1F6 conjugates, ~4 drugs/Ab.
The mark [6] stands for this setting: Table 10, h1F6-Drug(4) conjugates, aryl or alkyl maleimides.

One substance from US9463252B2, “Auristatin drug linker conjugates” (priority 2008, dated 2016) can be followed below.

For the substance “AM-Asparagine-(D)Lysine-diaminoethane-propionyl maleimide [AM-Asn-(D)Lys]”, the “IC50 786-O” value in the test on 786-O (setting [5]) stood at 0.02 mg/L; in the test with 786-O (setting [6]) it was 0.018 mg/L. Also, the entries for the “IC50 Caki-1” value with Caki-1 (setting [5]) and with Caki-1 (setting [6]) were 0.02 mg/L and 0.016 mg/L, respectively. Moreover, the “IC50 L428” value came out at 0.026 mg/L in the test on L428 [1] (setting [5]), 0.029 mg/L in the test on L428 [1] (setting [6]) and 0.0006 mg/L with L428 [2]. The “IC50 HCT-116 (CD70−)” value with HCT-116 (CD70−) is above 1 mg/L. Moreover, the “IC50 Caki-2” value was found to be 0.047 mg/L in the test on Caki-2 (setting [5]) and 0.026 mg/L with Caki-2 (setting [6]). Moreover, the “IC50 Karpas 299” value in the test with Karpas 299 is 0.011 mg/L. In addition, the “IC50 L540cy” value with L540cy came to 0.031 mg/L. The “IC50 ARH-77” value with ARH-77 was 0.049 mg/L. Moreover, in the test with Ramos, the “IC50 Ramos” value was 0.001 mg/L. The “IC50 SUDHL-4” value with SUDHL-4 is on record as >10,000 ng/mL. Besides, the “IC50 MCF-7” value with MCF-7 was found to be 0.024 mg/L. Besides, in the test with SKOV-3, the “IC50 SKOV-3” value is 7.6 mg/L. In addition, the “IC50 H3396” value with H3396 came to 0.037 mg/L. Moreover, the “IC50 L2987” value with L2987 was 0.506 mg/L. Besides, in the test on RCA, the “IC50 RCA” value stood at 8.362 mg/L. The “in vivo efficacy, tumor volume (in words)” value in test [3] and in [4] was “more potent than corresponding AW-Met-(D)Lys conjugates” throughout.
